# Assay results published in patent US6531305B1, “Sperm associated protein kinase polypeptides, corresponding nucleic acids, and methods of use” (University of Massachusetts, priority 1998, dated 2003).
# How the values were obtained:
# Assay in all cases: protein kinase blot: kinases renatured on the blot, labeling with [γ-32P]ATP
# Type in all cases: biochemical
# [1] = test system: other putative kinase bands of demembranated sperm; settings: demembranated ram sperm
# Procedure: (§1) Ejaculated sperm were -collected and washed and demembranated as described in San Agustin et al., Cell Motl. Cytoskel., 24:264-73, 1993. Samples of demembranated sperm were dissolved in SDS-PAGE sample buffer (10% glycerol, 3% SDS, 0.03% bromphenol blue, 50 mM DTT, 62.5 mM Tris-HCl, pH 6.8), and then electrophoresed in a 1.5-mm thick gradient gel (5-15%, 12×14 cm). Protein kinases were renatured on the blot and incubated in the presence of [γ−^32P]ATP using a protocol adapted from Ferrell and Martin, Methods Enzymol., 200:430-35, 1991 and described in San Austin et al., Methods Cell Biol., 47:135-40, 1995. Under these condition, bound kinases phosphorylated themselves or the blocking reagent. In some experiments, 1% poly(Glu,Tyr) 4:1, a tyrosine kinase substrate, was used as blocking solution in place of 5% BSA. […] Two prominent bands at ˜Mr 40,000 and 39,000 migrated slightly faster than porcine C (41 kDa). To determine if either of these was Cs, the incubation with [γ−^32P]ATP was carried out in the presence of PKI(5-24), a potent inhibitor of C, including ram Cs, activity. […] Labeling of the other bands was not affected by PKI(5-24).
# [2] = molecular target: T1, ~Mr 40,000 band from sperm (Cs) (Ovis aries, UniProt Q9MZD9); settings: demembranated ram sperm
# T1 construct: Samples of demembranated sperm were dissolved in SDS-PAGE sample buffer; from tissue; host or cells: ejaculated, demembranated ram sperm
# Procedure: as §1
# porcine C = porcine C (Sus scrofa, UniProt P36887)
# Procedure: as §1
substance,measurement,setting,value
PKI(5-24),labeling of the other bands with [γ-32P]ATP in the presence of inhibitor,[1],not affected
same,"labeling of the ~Mr 40,000 band from sperm with [γ-32P]ATP in the presence of inhibitor",[2],completely and specifically blocked
same,labeling of porcine C with [γ-32P]ATP in the presence of inhibitor,porcine C,completely and specifically blocked
